Measurements as given in PMC3676484 (Journal of medicinal chemistry, 2013).
pIC50: −log10 of the molar value.

Columns and labels:
[1] = system: GST-HIF-2α PAS-B* and ARNT PAS-B*-FLAG domains (HIF-2α–ARNT heterodimerization); assay: AlphaScreen luminescence proximity assay of HIF-2α–ARNT PAS-B heterodimerization; details: for pIC50: read-out: AlphaScreen IC50, disruption of HIF-2α PAS-B*–ARNT PAS-B* heterodimer; for AlphaScreen activity (in words): disruption of HIF-2α–ARNT heterodimerization
[2] = Solubility observation; format: physicochemical
[3] = target: HIF-2α PAS-B domain (Homo sapiens, UniProt Q99814); assay: Isothermal titration calorimetry; format: binding; details: for weakening of binding relative to compound 32: ITC data, compared with 32
Sequence of HIF-2α PAS-B domain (Q99814 240-350 limits assumed): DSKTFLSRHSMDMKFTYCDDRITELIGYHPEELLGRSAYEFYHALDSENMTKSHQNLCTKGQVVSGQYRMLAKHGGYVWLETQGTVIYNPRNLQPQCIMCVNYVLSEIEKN

pIC50 [1]	Structure (SMILES)	further results
< 4.52	O=C1C=CC(=O)N1c1c(Nc2cc(F)cc(Cl)c2)ccc2nonc12 [Compound 50]	
< 4.52	O=[N+]([O-])c1c(Nc2ccc(C(F)(F)F)cc2Cl)ccc2nonc12 [Compound 24]	
< 4.52	CNS(=O)(=O)c1c(Nc2cc(F)cc(Cl)c2)ccc2nonc12 [Compound 54]	AlphaScreen activity (in words) [1]: inactive as disruptors
	Fc1cc(Cl)cc(Nc2ccc3nonc3c2)c1 [Compound 46]	AlphaScreen activity (in words) [1]: weak activity; solubility (in words) [2]: relatively insoluble
< 4.52	O=C(CCl)Nc1c(Nc2cc(F)cc(Cl)c2)ccc2nonc12 [Compound 49]	
< 4.52	O=[N+]([O-])c1c(NCc2cc(F)ccc2C(F)(F)F)ccc2nonc12 [Compound 11]	
< 4.52	O=[N+]([O-])c1c(NCc2c(F)cccc2Cl)ccc2nonc12 [Compound 7]	
	O=[N+]([O-])c1c(Nc2cc(F)cc(F)c2)ccc2nonc12 [Compound 30]	weakening of binding relative to compound 32 [3]: 8 fold
	O=[N+]([O-])c1c(Nc2cccc(F)c2)ccc2nonc12 [Compound 23]	weakening of binding relative to compound 32 [3]: 25 fold
< 4.52	O=[N+]([O-])c1c(Nc2ccc(F)cc2)ccc2nonc12 [Compound 17]	
	CN(C)S(=O)(=O)c1c(Nc2cc(F)cc(Cl)c2)ccc2nonc12 [Compound 55]	AlphaScreen activity (in words) [1]: inactive as disruptors
< 4.52	COc1cccc(Nc2ccc3nonc3c2[N+](=O)[O-])c1 [Compound 16]	
< 4.52	O=[N+]([O-])c1c(Nc2ccc(Cl)cc2)ccc2nonc12 [Compound 18]	
	O=[N+]([O-])c1c(Nc2cccc(Cl)c2)ccc2nonc12 [Compound 19]	weakening of binding relative to compound 32 [3]: two fold reduction in affinity
< 4.52	O=[N+]([O-])c1c(Nc2ccc(Br)cc2)ccc2nonc12 [Compound 20]	
< 4.52	Cc1ccc(CNc2ccc3nonc3c2[N+](=O)[O-])cc1 [Compound 4]	
< 4.52	CC(=O)Nc1c(Nc2cc(F)cc(Cl)c2)ccc2nonc12 [Compound 48]	
	Nc1c(Nc2cc(F)cc(Cl)c2)ccc2nonc12 [Compound 47]	AlphaScreen activity (in words) [1]: weak activity; solubility (in words) [2]: relatively insoluble; worsening of binding and disruption relative to compound 32 ([3]; binding and disruption, NO2 replaced by NH2, compared with 32): 30–60 fold
